In article PMC7136958, “Targeting the pregnane X receptor using microbial metabolite mimicry” (EMBO Molecular Medicine, 2020):
Several values for one entry are separate records, joined by “and”; a condition that tells them apart may be missing. Equal entries are not always repeated.

What was measured:
Experiment in all cases: KINOMEscan select kinase screen
Type in all cases: binding
GSK3B = GSK3B (Homo sapiens, UniProt P49841); settings: two experiments
Procedure: (§1) Kinase Assays. The kinase inhibition assays were conducted by DiscoverX on a platform assay by Ambit BioSciences as described previously 16,17. FKK6 was screened at a single concentration of 10 μM in duplicate. The scanMAXSM assay panel measures 468 kinases
(§2) (https://www.discoverx.com/services/drug-discovery-development-services/kinase-profiling/kinomescan/scanmax). The assays measure a compound’s ability to inhibit binding of a canonical ligand substrate, with 0% activity of control corresponding to full inhibition and 100% activity of control to no inhibition. […]
(§3) quantitative measure of compound selectivity based on the number of kinase hits (enzymes inhibited) divided by the total number of distinct kinases tested. Three different activity cut-offs were analyzed – […]
(§4) ; and S(1) or % activity of control
(§5) < 1. To illustrate effect or lack of effect, an image of the entire family of kinases tested were grouped by families and S(35). The TREEspot Kinase dendrogram image was generated using TREEspot™ Software Tool and reprinted with permission from KINOME scan®, a division of DiscoveRx […]

GSK3A = GSK3A (Homo sapiens, UniProt P49840); settings: two experiments
GSK3A, sequence (P49840 whole entry): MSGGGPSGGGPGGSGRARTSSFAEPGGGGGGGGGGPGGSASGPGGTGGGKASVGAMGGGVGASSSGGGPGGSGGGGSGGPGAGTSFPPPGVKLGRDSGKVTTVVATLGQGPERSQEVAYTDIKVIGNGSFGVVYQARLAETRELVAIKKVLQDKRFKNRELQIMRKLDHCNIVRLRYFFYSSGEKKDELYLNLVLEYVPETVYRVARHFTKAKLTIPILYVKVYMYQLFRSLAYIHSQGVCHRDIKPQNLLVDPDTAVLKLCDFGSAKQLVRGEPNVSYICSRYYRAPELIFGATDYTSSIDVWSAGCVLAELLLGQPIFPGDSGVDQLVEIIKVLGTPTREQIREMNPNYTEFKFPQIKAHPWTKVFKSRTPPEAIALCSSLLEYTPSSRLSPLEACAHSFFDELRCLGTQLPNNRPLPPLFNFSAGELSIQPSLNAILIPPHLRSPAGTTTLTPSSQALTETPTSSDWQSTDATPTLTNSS
Procedure: as §1, §2, §3, §4, §5

ERK5 = ERK5 (Homo sapiens, UniProt Q13164); settings: two experiments
ERK5, sequence (Q13164 whole entry): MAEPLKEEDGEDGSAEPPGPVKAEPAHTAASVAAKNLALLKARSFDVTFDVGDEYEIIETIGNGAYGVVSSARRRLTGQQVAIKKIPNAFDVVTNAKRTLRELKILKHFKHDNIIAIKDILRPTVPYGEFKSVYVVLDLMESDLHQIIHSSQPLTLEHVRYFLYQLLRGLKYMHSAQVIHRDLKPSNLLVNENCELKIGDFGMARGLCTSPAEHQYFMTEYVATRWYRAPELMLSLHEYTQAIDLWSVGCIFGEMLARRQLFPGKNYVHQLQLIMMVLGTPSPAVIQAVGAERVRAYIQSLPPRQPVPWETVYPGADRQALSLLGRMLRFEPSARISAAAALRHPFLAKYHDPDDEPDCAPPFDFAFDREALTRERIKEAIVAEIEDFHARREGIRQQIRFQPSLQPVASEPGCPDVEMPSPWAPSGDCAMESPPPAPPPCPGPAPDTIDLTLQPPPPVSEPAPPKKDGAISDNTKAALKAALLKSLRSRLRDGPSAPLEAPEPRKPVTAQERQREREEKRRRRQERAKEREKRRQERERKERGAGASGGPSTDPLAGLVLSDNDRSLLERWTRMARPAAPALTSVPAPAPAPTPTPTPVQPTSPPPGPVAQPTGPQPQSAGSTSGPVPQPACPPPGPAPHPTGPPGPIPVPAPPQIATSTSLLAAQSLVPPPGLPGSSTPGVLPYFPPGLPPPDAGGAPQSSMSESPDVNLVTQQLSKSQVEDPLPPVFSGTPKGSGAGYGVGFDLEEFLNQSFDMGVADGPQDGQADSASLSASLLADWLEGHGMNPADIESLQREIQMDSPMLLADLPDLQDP
Procedure: as §1, §2, §3, §4, §5

ERK8 = target: T1, ERK8 (Homo sapiens, UniProt Q8TD08); settings: two experiments
T1 sequence (Q8TD08 1-544): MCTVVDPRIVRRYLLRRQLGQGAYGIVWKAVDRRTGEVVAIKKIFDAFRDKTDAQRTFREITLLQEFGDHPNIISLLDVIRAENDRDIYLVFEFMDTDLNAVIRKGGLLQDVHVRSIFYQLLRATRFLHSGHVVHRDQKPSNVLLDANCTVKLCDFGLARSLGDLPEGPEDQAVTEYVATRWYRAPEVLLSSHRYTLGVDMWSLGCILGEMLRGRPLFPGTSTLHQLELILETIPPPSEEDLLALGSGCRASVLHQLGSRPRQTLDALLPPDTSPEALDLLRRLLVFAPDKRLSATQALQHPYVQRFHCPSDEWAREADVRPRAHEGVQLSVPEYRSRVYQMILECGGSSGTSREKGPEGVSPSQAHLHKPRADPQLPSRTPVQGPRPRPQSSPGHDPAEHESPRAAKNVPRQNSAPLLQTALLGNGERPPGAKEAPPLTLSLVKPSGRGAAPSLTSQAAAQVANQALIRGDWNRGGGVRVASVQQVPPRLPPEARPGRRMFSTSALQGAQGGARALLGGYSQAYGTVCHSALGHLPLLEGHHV
Procedure: as §1, §2, §3, §4, §5

ERK4 = ERK4 (Homo sapiens, UniProt P31152); settings: two experiments
ERK4, sequence (P31152 whole entry): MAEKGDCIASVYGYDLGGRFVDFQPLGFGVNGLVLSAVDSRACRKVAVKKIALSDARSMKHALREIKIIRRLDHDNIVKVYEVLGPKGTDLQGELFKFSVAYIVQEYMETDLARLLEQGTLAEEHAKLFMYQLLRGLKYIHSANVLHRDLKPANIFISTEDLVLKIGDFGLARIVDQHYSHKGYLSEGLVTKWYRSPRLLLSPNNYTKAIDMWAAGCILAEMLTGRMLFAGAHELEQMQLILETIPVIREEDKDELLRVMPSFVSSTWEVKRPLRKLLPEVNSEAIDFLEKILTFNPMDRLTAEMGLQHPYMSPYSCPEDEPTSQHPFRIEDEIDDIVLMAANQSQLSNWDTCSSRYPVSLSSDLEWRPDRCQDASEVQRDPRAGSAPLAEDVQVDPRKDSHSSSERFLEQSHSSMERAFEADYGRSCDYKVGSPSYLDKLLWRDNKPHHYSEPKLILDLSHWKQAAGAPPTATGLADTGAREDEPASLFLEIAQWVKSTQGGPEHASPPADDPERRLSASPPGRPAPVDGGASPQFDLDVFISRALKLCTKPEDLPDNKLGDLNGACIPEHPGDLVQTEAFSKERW
Procedure: as §1, §2, §3, §4, §5

ERK3 = ERK3 (Homo sapiens, UniProt Q16659); settings: two experiments
ERK3, sequence (Q16659 whole entry): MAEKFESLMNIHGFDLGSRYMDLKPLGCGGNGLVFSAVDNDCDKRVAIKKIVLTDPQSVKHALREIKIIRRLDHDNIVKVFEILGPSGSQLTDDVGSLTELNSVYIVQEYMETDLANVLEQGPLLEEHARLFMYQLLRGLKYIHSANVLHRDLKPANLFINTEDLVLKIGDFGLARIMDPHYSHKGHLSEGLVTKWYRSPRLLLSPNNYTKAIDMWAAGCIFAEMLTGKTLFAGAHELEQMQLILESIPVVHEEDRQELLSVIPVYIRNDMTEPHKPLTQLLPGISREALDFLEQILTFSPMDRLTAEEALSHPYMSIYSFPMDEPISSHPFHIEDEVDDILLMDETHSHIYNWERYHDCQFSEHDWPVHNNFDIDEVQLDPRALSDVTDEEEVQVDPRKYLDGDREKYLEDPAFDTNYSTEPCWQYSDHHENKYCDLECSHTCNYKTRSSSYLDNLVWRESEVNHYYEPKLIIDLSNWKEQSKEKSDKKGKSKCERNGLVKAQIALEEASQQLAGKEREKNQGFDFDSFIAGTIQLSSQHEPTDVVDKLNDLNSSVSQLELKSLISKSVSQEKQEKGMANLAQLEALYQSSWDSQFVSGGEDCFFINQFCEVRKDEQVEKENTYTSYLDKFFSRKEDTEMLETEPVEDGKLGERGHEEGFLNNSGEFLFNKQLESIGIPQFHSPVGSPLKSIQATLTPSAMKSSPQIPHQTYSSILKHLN
Procedure: as §1, §2, §3, §4, §5

ERK1 = ERK1 (Homo sapiens, UniProt P27361); settings: 10000 nM, two experiments
ERK1, sequence (P27361 whole entry): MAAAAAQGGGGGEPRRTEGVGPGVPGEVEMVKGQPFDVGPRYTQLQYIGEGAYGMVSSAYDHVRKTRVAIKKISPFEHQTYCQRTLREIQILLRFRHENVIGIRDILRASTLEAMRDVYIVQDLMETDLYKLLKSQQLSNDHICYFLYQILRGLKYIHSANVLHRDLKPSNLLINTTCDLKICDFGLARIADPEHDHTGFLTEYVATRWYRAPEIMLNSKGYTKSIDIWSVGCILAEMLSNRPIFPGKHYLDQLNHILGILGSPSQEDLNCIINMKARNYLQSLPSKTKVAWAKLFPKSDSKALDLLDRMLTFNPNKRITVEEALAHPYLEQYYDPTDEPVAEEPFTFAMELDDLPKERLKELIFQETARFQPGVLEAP
Procedure: as §1, §2, §3, §4, §5

ERK2 = ERK2 (Homo sapiens, UniProt P28482); settings: two experiments
ERK2, sequence (P28482 whole entry): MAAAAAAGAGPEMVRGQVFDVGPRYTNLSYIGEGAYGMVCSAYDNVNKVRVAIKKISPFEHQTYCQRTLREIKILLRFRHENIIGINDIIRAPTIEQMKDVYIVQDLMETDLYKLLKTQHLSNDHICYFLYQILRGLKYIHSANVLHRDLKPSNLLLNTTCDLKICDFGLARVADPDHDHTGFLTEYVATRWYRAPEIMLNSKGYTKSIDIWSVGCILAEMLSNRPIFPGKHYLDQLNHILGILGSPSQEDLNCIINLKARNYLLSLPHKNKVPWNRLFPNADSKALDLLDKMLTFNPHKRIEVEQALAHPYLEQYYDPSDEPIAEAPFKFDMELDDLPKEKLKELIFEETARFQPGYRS
Procedure: as §1, §2, §3, §4, §5

CDK4 = CDK4 (Homo sapiens, UniProt P11802); settings: two experiments
CDK4, sequence (P11802 whole entry): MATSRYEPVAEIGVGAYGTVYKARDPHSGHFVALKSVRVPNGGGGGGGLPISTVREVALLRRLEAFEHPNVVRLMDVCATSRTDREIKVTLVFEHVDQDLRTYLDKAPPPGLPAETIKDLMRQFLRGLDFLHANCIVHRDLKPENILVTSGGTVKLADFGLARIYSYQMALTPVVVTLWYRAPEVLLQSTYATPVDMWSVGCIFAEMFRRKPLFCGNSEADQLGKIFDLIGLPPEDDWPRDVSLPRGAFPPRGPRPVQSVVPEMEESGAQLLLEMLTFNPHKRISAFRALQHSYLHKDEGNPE
Procedure: as §1, §2, §3, §4, §5

CDK2 = CDK2 (Homo sapiens, UniProt P24941); settings: two experiments
Procedure: as §1, §2, §3, §4, §5

IKK-alpha = target: T2, IKK-alpha (Homo sapiens, UniProt O15111); settings: two experiments
T2 sequence (O15111 1-745): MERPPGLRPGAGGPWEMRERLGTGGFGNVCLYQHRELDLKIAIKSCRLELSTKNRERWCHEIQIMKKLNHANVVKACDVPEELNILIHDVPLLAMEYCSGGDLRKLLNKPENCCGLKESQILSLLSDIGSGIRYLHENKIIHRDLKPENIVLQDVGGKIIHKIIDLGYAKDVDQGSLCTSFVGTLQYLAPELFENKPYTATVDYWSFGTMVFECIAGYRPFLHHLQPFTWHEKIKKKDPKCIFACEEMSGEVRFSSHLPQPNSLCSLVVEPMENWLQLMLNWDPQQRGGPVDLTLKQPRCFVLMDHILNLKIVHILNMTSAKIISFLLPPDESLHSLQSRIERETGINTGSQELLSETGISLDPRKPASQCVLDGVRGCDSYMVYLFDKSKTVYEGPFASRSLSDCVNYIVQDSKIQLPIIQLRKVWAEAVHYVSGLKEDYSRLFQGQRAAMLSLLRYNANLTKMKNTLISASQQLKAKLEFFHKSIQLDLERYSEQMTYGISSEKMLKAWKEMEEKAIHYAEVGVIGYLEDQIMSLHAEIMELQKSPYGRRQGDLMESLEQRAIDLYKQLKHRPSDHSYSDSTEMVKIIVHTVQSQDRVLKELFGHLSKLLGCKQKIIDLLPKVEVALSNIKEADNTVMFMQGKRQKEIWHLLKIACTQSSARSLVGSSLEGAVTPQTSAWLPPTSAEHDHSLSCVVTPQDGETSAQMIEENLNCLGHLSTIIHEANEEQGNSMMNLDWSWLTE
Procedure: as §1, §2, §3, §4, §5

CDK5 = CDK5 (Homo sapiens, UniProt Q00535); settings: two experiments
CDK5, sequence (Q00535 whole entry): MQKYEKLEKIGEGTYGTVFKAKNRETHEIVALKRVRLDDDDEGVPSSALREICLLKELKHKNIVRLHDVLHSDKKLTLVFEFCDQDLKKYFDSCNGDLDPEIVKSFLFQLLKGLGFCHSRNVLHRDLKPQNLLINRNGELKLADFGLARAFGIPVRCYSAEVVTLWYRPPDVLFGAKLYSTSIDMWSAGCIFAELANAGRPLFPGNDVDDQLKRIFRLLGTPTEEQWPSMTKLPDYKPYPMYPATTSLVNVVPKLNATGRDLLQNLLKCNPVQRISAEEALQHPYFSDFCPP
Procedure: as §1, §2, §3, §4, §5

GSK3B, sequence (P49841 whole entry): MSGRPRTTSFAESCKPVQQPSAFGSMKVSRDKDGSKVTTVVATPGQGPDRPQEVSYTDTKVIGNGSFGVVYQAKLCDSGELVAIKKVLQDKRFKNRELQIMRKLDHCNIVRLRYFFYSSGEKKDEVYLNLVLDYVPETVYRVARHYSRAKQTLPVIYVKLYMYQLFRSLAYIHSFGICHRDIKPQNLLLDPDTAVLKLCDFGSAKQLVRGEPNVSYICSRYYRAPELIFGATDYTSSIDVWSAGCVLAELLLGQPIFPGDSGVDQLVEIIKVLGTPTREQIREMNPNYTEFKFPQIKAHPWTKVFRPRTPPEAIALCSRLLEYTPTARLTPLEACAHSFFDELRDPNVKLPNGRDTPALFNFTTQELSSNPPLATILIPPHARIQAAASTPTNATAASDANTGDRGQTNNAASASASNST

O=C(c1ccncc1)c1cc2ccccc2n1S(=O)(=O)c1ccccc1 [FKK5, (1-(phenylsulfonyl)-1H-indol-2-yl)(pyridin-4-yl)methanone]
%Ctrl (GSK3B; 10000 nM, 10 µM): 92 %Ctrl | remaining binding at 10 µM (GSK3B; 10000 nM, read-out: %Ctrl): 100% | %Ctrl (GSK3B; 25000 nM, 25 µM): 90 %Ctrl | remaining binding at 25 µM (GSK3B; 25000 nM, read-out: %Ctrl): 98% | %Ctrl (GSK3A; 10000 nM, 10 µM): 92 %Ctrl | remaining binding at 10 µM (GSK3A; 10000 nM, read-out: %Ctrl): 79% | %Ctrl (GSK3A; 25000 nM, 25 µM): 49 %Ctrl and 77 %Ctrl | %Ctrl (ERK5; 10000 nM, 10 µM): 79 %Ctrl | remaining binding at 10 µM (ERK5; 10000 nM, read-out: %Ctrl): 94% | %Ctrl (ERK5; 25000 nM, 25 µM): 92 %Ctrl | remaining binding at 25 µM (ERK5; 25000 nM, read-out: %Ctrl): 100% | %Ctrl (ERK8; 10000 nM, 10 µM): 97 %Ctrl and 71 %Ctrl | %Ctrl (ERK8; 25000 nM, 25 µM): 65 %Ctrl | remaining binding at 25 µM (ERK8; 25000 nM, read-out: %Ctrl): 75% | %Ctrl (ERK4; 10000 nM, 10 µM): 82 %Ctrl | remaining binding at 10 µM (ERK4; 10000 nM, read-out: %Ctrl): 97% | %Ctrl (ERK4; 25000 nM, 25 µM): 91 %Ctrl | remaining binding at 25 µM (ERK4; 25000 nM, read-out: %Ctrl): 89% | %Ctrl (ERK3; 10000 nM, 10 µM): 88 %Ctrl | remaining binding at 10 µM (ERK3; 10000 nM, read-out: %Ctrl): 100% | %Ctrl (ERK3; 25000 nM, 25 µM): 93 %Ctrl | remaining binding at 25 µM (ERK3; 25000 nM, read-out: %Ctrl): 80% | %Ctrl (ERK1; 10 µM): 100 %Ctrl | remaining binding at 10 µM (ERK1; read-out: %Ctrl): 86% | %Ctrl (ERK2; 10000 nM, 10 µM): 100 %Ctrl | remaining binding at 10 µM (ERK2; 10000 nM, read-out: %Ctrl): 99% | %Ctrl (ERK2; 25000 nM, 25 µM): 85 %Ctrl | remaining binding at 25 µM (ERK2; 25000 nM, read-out: %Ctrl): 94% | %Ctrl (CDK4; 10000 nM, 10 µM): 98 %Ctrl | remaining binding at 10 µM (CDK4; 10000 nM, read-out: %Ctrl): 100% | %Ctrl (CDK4; 25000 nM, 25 µM): 90 %Ctrl | remaining binding at 25 µM (CDK4; 25000 nM, read-out: %Ctrl): 95% | %Ctrl (CDK2; 10000 nM, 10 µM): 100 %Ctrl and 74 %Ctrl | %Ctrl (CDK2; 25000 nM, 25 µM): 89 %Ctrl and 63 %Ctrl | %Ctrl (IKK-alpha; 10000 nM, 10 µM): 86 %Ctrl | remaining binding at 10 µM (IKK-alpha; 10000 nM, read-out: %Ctrl): 96% | %Ctrl (IKK-alpha; 25000 nM, 25 µM): 100 %Ctrl | remaining binding at 25 µM (IKK-alpha; 25000 nM, read-out: %Ctrl): 83% | %Ctrl (CDK5; 10000 nM, 10 µM): 77 %Ctrl and 100 %Ctrl | %Ctrl (CDK5; 25000 nM, 25 µM): 61 %Ctrl and 100 %Ctrl
